# Experimental data: patent EP2140864A2 (H. Lundbeck A/S, priority 2001, dated 2002)
# Marks after values point to notes of the source that are not given here.
# Key:
# [1] = system: Male albino Sprague-Dawley rats; experiment: Rat Social Interaction Test (SIT); type: in vivo
# [2] = system: Male albino Sprague-Dawley rats; experiment: Rat Social Interaction Test (SIT); type: in vivo; conditions: 5 mg/kg i.p., 1 hour prior to testing
# Procedure: Rats were allowed to acclimate to the animal care facility for 5 days and were housed singly for 5 days prior to testing. Animals were handled for 5 minutes per day. The design and procedure for the Social Interaction Test was carried out as previously described by Kennett, et al. (1997). On the test day, weight matched pairs of rats (± 5%), unfamiliar to each other, were given identical treatments and returned to their home cages. Animals were randomly divided into 5 treatment groups, with 5 pairs per group, and were given one of the following i.p. treatments: Example 92 (10, 30 or 100 mg/kg), vehicle (1 ml/kg) or chlordiazepoxide (5 mg/kg). Dosing was 1 hour prior to testing. Rats were subsequently placed in a white perspex test box or arena (54 x 37 x 26 cm), whose floor was divided up into 24 equal squares, for 15 minutes. An air conditioner was used to generate background noise and to keep the room at approximately 74°F. All sessions were videotaped using a JVC camcorder (model GR-SZ1, Elmwood Park, NJ) with either TDK (HG ultimate brand) or Sony 30 minute videocassettes. All sessions were conducted between 1:00 - 4:30 P.M. Active social interaction, defined as grooming, sniffing, biting, boxing, wrestling, following and crawling over or under, was scored using a stopwatch (Sportsline model no. 226, 1/100 sec. discriminability). The number of episodes of rearing (animal completely raises up its body on its hind limbs), grooming (licking, biting, scratching of body), and face washing (i.e. hands are moved repeatedly over face), and number of squares crossed were scored. Passive social interaction (animals are lying beside or on top of each other) was not scored. All behaviors were assessed later by an observer who was blind as to the treatment of each pair. At the end of each test, the box was thoroughly wiped with moistened paper towels.
# Male albino Sprague-Dawley rats (Taconic Farms, NY) were housed in pairs under a 12 hr light dark cycle (lights on at 0700 hrs.) with free access to food and water.
# Example 92 was dissolved in 100% DMSO (Sigma Chemical Co., St. Louis, MO). Chlordiazepoxide (purchased from Sigma Chemical Co., St. Louis, MO) was dissolved in double distilled water. The vehicle consisted of 50% DMSO (v/v). All drug solutions were made up 10 minutes prior to injection and the solutions were discarded.
# Example 34 was dissolved in 5% lactic acid, v/v. The vehicle consisted of 100% dimethylacetamide (DMA) and this was used to make up all drug solutions. All drug solutions were made up fresh each day and any unused solutions were discarded at the end of the test day. The volume of drug solution administered was 1 ml/kg.
# The social interaction data (time interacting, rearing and squares crossed) were subjected to a randomized, one-way ANOVA and post hoc tests conducted using the Student-Newman-Keuls test. The data were subjected to a test of normality (Shapiro-Wilk test). The data were analyzed using the GBSTAT program, version 6.5 (Dynamics Microsystems, Inc., Silver Spring, MD, 1997). All data are presented as means ± S.E.M.
# [3] = 5 mg/kg p.o., one hour before test
structure (smiles),measurement,setting,value
"CNC1=Nc2ccc(Cl)cc2C(c2ccccc2)=[N+]([O-])C1 [Chlordiazepoxide, chlordiazepoxide, reference compound]",Rearings,"[1]; 5 mg/kg i.p., 1 hour prior to testing",30 ± 2
same,Social Interaction,"[1]; 5 mg/kg i.p., 1 hour prior to testing, unfamiliar rats, 15 minute test",188 ± 15^b sec
same,Grooming bouts,[1]; [3],5.3 ± 0.7
same,Rearing,[1]; [3],35 ± 2
same,Squares Crossed,[1]; [3],265 ± 30
same,Social Interaction,"[1]; 5 mg/kg p.o., one hour before test, unfamiliar cage mates in a familiar arena",122 ± 18^S sec
same,Grooming bouts,[2],7.3 ± 1.3
same,Squares Crossed,[2],287 ± 28
